Reference: US6200966A, “Compositions for inhibiting airway wall inflammation” (Amrad Operations Pty. Ltd., priority 1996, dated 2001)
Entries after “also recorded” stand apart in the source; their conditions may differ.

How the values were obtained:
[1] = test system: human cultured airway smooth muscle cells; assay: DNA synthesis: [3H]-thymidine incorporation; assay type: cell-based
Procedure: Human bronchial airway smooth muscle was obtained from macroscopically normal lung resection specimens from lung transplant donors or recipients provided by the Alfred Hospital (Melbourne). Cultures were prepared as previously described in detail (Tomlinson et al., 1994). Briefly, the tissue was partially digested in Dulbecco's Modified Eagle's Medium (DMEM), [supplemented with 2 mM L-glutamine, 100 μg/ml streptomycin, 100 U/ml penicillin-G, 2 μg/ml amphotericin B, and 0.25% w/v bovine serum albumin (BSA)] containing 3 mg/ml collagenase for 30 minutes at 37° C. and approximately 0.5 g smooth muscle was further digested by a 2 hour incubation in 0.5 mg/ml elastase, followed by an 18 hour incubation in collagenase (3 mg/ml) at 37° C. Cell suspensions ere centrifuged (10 min, 100×g, 25° C.), washed three times in supplemented DMEM, resuspended in 25 ml DMEM containing 10% (v/v) heat-inactivated foetal calf serum (FCS), seeded into 25 cm^2 Falcon culture flasks and incubated (37° C., 5% CO2) for 7 to 10 days until monolayer confluence was reached. Cells were then harvested weekly by 10 min exposure to 0.5% trypsin, 1 mM EDTA and passaged at a 1:3 split ratio into 75 cm^2 Falcon culture flaskes. Cells at passage numbers 3 to 15 were used for experiments.
Cells were subcultured into 24-well plates at a 1:3 ratio and allowed to grow to monolayer confluency over a 72-96 hour period in an atmosphere of 5% CO2 in air at 37° C. The serum-containing medium was replaced with serum-free DMEM for a 24 hour period to produce growth arrest. In some experiments, the cells were pretreated with 2-methoxyestradiol 30 min before the addition of mitogen. The stimulant (mitogen) was added to the appropriate wells together with a supplement containing insulin, transferrin, and selenium (Monomed A, 1% v/v). Monomed A was added to provide progression factors which are essential for the mitogenic activity of growth factors such as thrombin, epidermal growth factor (EGF) and basic fibroblast growth factor (bFGF) (Stewart et al., 1995a). Mitogens and inhibitors were left in contact with cells from the time of addition until the end of the experiment, unless indicated otherwise. Cells were incubated for 24 hours (37° C., 5% CO2) before being pulsed with [^3 H]-thymidine (1 μCi/ml for four hours) to measure incorporation of radiolabel into newly synthesized DNA, according to out previous study (Stewart et al., 1995). Incorporation of radioactivity was determined by filtration at the end of the pulse-labelling period. The medium containing the radioactivity was aspirated and the cells were lysed by addition of 200 μl of 0.1M NaOH. The DNA was immobilised by filtration in a binding harvester (Packard Filtermate 196) on glass fibre filters (Packard, standard), which were then washed with 3×3 ml volumes of distilled water and a single 1 ml volume of 100% ethanol. The dried filters were counted in a Packard Topcount liquid scintillation counter. Protein synthesis rates were determined in experiments of analogous design to those described above, but [^3 H]-leucine replaced [^3 H]-thymidine in the pulsing incubation of 4 hours. Furthermore, in experiments to determine the effects of mitogens and 2-methoxyestradiol on the rate of protein synthesis, incubations with mitogen were carried out for a period of 48 hours. The longer duration of these experiments was required to allow sufficient time for cell division to occur.
Each treatment in an individual experiment was carried out in quadruplicate for DNA and protein synthesis experiments. Each experiment was performed in at least three different cultures obtained from three different individuals. For cell counting, single incubations were carried out in three cultures. Results are presented as grouped data from multiple cultures and are expressed as mean ±S. E. of n cultures. The degree of increment was calculated by dividing the response of treated wells by that of the control wells on the same 24-well plate.

[2] = test system: guinea-pig peritoneal macrophages; assay: Superoxide anion release in peritoneal macrophages; assay type: cell-based; conditions: 10 μM
Procedure: Guinea-pig peritoneal macrophages were harvested and cultured according to out previous studies (Stewart & Phillips, 1989). Cells were incubated with stimuli including the chemotactic tripeptide, formyl methiony leucyl Phenylalanine (fMLP, 100 nM), Zymosan (400 μg/ml) or phorbol myristate acetate (PMA, 100 nM) for 30 min in the presence or absence of 2-methoxyestradiol (10 μM) added 15 min before the stimuli. […] All individual incubations were carried out in duplicate and experiments were carried out in macrophages from 5 guinea-pigs.

[3] = test system: smooth muscle; conditions: Goyache et al., 1995; cited from earlier work
[4] = test system: cultured smooth muscle cells from rabbit aorta; conditions: Nishigaki et al., 1995; cited from earlier work
[5] = test system: certain transformed cell lines; conditions: Lottering et al., 1992; cited from earlier work
[6] = test system: adherent monocytes; assay: Superoxide anion generation in adherent monocytes; assay type: cell-based, human
[7] = test system: airway smooth muscle cells; assay: Morphological changes (cell rounding); assay type: cell-based, human
[8] = test system: airway smooth muscle cells; conditions: 10 μM
[9] = test system: RBL2H3 cells; assay: Mast cell degranulation: [3H]-5HT release; assay type: cell-based; conditions: for DNP-OA-stimulated release of [3H]-5HT: ovalbumin (DNP-OA), 10 μM
Procedure: RBL2H3 cells were cultured in RPMI 1640 containing 10% FCS and were passaged into 24 well plates for experiments. The cells were sensitised by a 48 hour incubation with 50% (V/V) conditioned medium from a lymphoid cell line secreting anti-DNP ovalbumin antibody. During the last 24 hours of this incubation [^3 H]-5HT (1 μCi/ml) was added to each of the wells to label granular amine stores. At the end of the incubation period, the medium was aspirated, the cells were washed twice in RPMI 1640 and incubated in RPMI 1640 (0.25% BSA) in the absence or presence of 2-methyoxyoestradiol for 15 mins prior to stimulation with DNP-treated ovalbumin, A23187 or PMA for 30 mins at which time the supernatants were harvested, subjected to centrifugation (1000×g, 4° C., 5 min) and aliquots taken for determination of the amount of [^3 H]-5HT released. All experiments were carried out in quadruplicate.

[10] = 3 μM, thrombin, additional time points

Structure (SMILES): COc1cc2c(cc1O)CC[C@@H]1[C@@H]2CC[C@]2(C)[C@@H](O)CC[C@@H]12 [2-methoxyestradiol, 1,3,5[10]-estratriene-2,3,17-triol 2-methylether]
- DNA synthesis, addition at 18 hours or later after thrombin ([1]; 3 μM, thrombin 0.3 U/ml): no effect
- time of addition after thrombin giving maximum inhibition ([1]; 3 μM, thrombin 0.3 U/ml, first time-course): 2 h
- thrombin-stimulated DNA synthesis, addition up to 4 h after thrombin ([1]; 3 μM, thrombin 0.3 U/ml, time-course): inhibited
- persistence of significant inhibition after thrombin addition [1, 10]: up to 6 hours
- time of addition giving the highest level of activity [1, 10]: either simultaneously or 1 hour after thrombin
- relative potency among analogues examined ([1]; DNA synthesis): most potent of the analogues examined
- DNA synthesis in the presence of EGF or 10% FCS ([1]; EGF 3 nM or 10% FCS, relative to thrombin, bFGF, lower FCS): inhibited to a significantly lesser extent
- FCS (1%)-stimulated DNA synthesis, 10 μM ([1]; FCS 1%, 10 μM): inhibition was observed at 10 μM; also recorded: equivalent to 2-methoxyestradiol (10 μM)
- FCS (1%)-stimulated DNA synthesis, lower concentrations ([1]; FCS 1%, lower concentrations): enhanced
- inhibition with FCS (10%) ([1]; FCS 10%): significantly less inhibited
- inhibition at 3 µM ([1]; Homo sapiens, 3 μM, thrombin 0.3 U/ml, read-out: inhibition of DNA synthesis, addition between 4 and 14 hours after thrombin): ~20%
- activity at 10 µM ([1]; Homo sapiens, thrombin 0.3 U/ml, 10 μM, read-out: response to thrombin ([3H]-thymidine), remaining): ~10%
- concentration-response of enhancement of thrombin-stimulated DNA synthesis ([1]; thrombin): bell-shaped concentration-response curve
- enhancement of thrombin-stimulated DNA synthesis, 10 μM ([1]; thrombin 0.3 U/ml, 10 μM): level of enhancement declined at 10 μM
- thrombin-stimulated incorporation of [3H]-thymidine ([1]; thrombin 0.3 U/ml, 0.3-10 μM, 30 min pretreatment): concentration-dependentreduction
- thrombin-stimulated DNA synthesis (analogues) ([1]; thrombin 0.3 U/ml, up to 3 μM): enhanced thrombin-stimulated DNA synthesis
- superoxide anion response of macrophages, PMA ([2]; PMA (100 nM)): unaffected
- superoxide anion response of macrophages, fMLP ([2]; fMLP (100 nM)): reduced
- superoxide anion response of macrophages, zymosan ([2]; zymosan (400 μg/ml)): reduced; also recorded: completely blocked
- calcium influx into smooth muscle [3]: decrease calcium influx
- proliferation of rabbit aorta smooth muscle cells [4]: anti-proliferative effects
- proliferation of transformed cell lines [5]: inhibits proliferation
- superoxide anion generation in adherent monocytes, PMA ([6]; response to PMA): unaffected
- superoxide anion generation in adherent monocytes, zymosan ([6]; zymosan-stimulated, 10 μM, at least some donors): markedly inhibited
- onset of shape changes ([7]; 3 and 10 μM): ≤ 6 h
- morphological changes ([7]; 3 and 10 μM (2-methoxyestradiol)): rounded appearance of the normally spindle-shaped cells
- cell detachment from the culture plates [8]: no cell detachment
- protein synthesis rates (as evidence against cytotoxicity) [8]: not altered
- release of [3H]-5HT, basal or PMA or A23187 ([9]; basal, PMA (100 nM), A23187 (10 μM)): unaffected; also recorded: did not affect release in response to PMA
- DNP-OA-stimulated release of [3H]-5HT [9]: reduced
- DNP-OA-stimulated release of [3H]-5HT ([9]; listed as 2-methoxyoestradiol): inhibits degranulation
